In patent US11584937B2, “Compositions and methods for controlling plant growth and development” (THE TRUSTEES OF THE UNIVERSITY OF PENNSYLVANIA, priority 2014, dated 2023):

Experiments:
[1] = test system: APETALA1 (AP1); assay: AP1 induction (qRT-PCR, pAP1:AP1-GFP imaging) in GR-fusion transgenic plants after treatment; assay type: in vivo, Arabidopsis thaliana; settings: 4 hours
Description: For mock treatment, 0.01% ethanol (EtOH) with 0.01% Silwet L-77 was used as control. […] For test of AP1 induction in single or double hemizygous transgenic lines (FIG. 4A, C, and figure S9) treatments were performed by spraying 16-day-old plants grown on plates once with 10 μM dexamethasone and/or 10 μM paclobutrazol. Tissues were harvested after 4 hours. […] 16-day-old 35S:AlcR pAlcA:mir156f/- 35S:LFY-GR/- plants were sprayed with 10 μM dexamethasone plus 10 μM paclobutrazol and exposed to ethanol vapor or water control. Tissues were harvested after 4 hours. […]
For qRT-PCR, RNA was isolated form entire plants after the switch to reproduction using TRIzol reagent (Invitrogen) and RNeasy Mini kits (Qiagen) and processed as previously described (45). […] Quantitative real-time PCR was performed using Power SYBR green mastermix (Applied Biosystems). The mean and standard error were determined using three technical replicates from one representative experiments. […]
For imaging of GFP fluorescence, inflorescence apices were dissected to remove older flowers and imaged using a Leica confocal microscope (Leica, LCS SL) equipped with an argon-krypton ion laser with the appropriate filter sets for visualizing GFP. […]

[2] = test system: Arabidopsis; assay: Number of rosette leaves (vegetative phase) and of cauline leaves and branches (first inflorescence phase) after hormone or inhibitor treatment; assay type: in vivo, Arabidopsis thaliana
Description: Plants were grown at 23° C. in a 16 h light/8 h dark cycle. The following plant lines were previously described: lfy-1 null and lfy-2 hypomorph mutants; lfy-6 null mutants, 35S:LFY-GR; 35S:LFY; gal-3; gai; pRGA:RGA-GFP; pRGA:RGA-HA; gal-3 rgl2-1 rga-2 35S:RGA-GR; pSPL9:rSPL-FLAG; 35S:AlcR pAlcA:mir156f; and 35S:SPL9-GR and pAP1:AP1-GFP. […] Most plants were in the Columbia background except for 35S:LFY-GR, pRGA:RGA-GFP, and lfy-6 mutants, which were in the Landsberg erecta background. To avoid comparisons of plants in different ecotype backgrounds, we performed crosses between homozygous transgenic plants and conducted all subsequent analyses in the F1 population. […] Statistical analyses were performed on plant phenotypes that are normally distributed. The population size was determined by expedience (tissue or plant amount that could reasonably be obtained).
For mock treatment, 0.01% ethanol (EtOH) with 0.01% Silwet L-77 was used as control. […] For paclobutrazol treatment in wild type to examine the number of rosette and cauline leaves formed (figure S8), wild-type plants were first germinated on MS plates. After 4 days plants were transferred either to MS plates containing 1 μM paclobutrazol or to control MS plates and grown for 6 more days. At day 10, the plants were transplanted to soil. […] For test of the number of rosette or cauline leaves produced under conditions of increased DELLA accumulation/activity (FIG. 4E), WT, 35S:LFY/-, pSPL9:rSPL9-FLAG/-, and 35S:LFY/- pSPL9:rSPL9-FLAG/- were first germinated on MS plates, followed by transfer to MS plates containing 1 μM paclobutrazol or to control MS plates from day 4 to day 10 of age. At day 10, the plants were transplanted onto soil.

[3] = wild-type plants, MS plates containing 1 μM paclobutrazol day 4 to day 10, versus control plates

**Q.** With `CC(C)(C)[C@@H](O)[C@@H](Cc1ccc(Cl)cc1)n1cncn1` (racemic) [paclobutrazol] as the compound, how does the “pAP1:AP1-GFP expression in young flower primordia” value ([1]; 35S:LFY-GR plants, Dex 10 μM plus PAC 10 μM, confocal imaging) read?
**A.** The value was “increase in AP1-GFP”.

**Q.** And the “production of AP1 in young flower primordia” value ([1]; LFY-GR plants, 10 μM paclobutrazol simultaneously with 10 μM dexamethasone, relative to either alone)?
**A.** Its value is “increased production of AP1”.

**Q.** What about the “number of cauline leaves formed” value ([2]; 35S:LFY pSPL9:rSPL9-FLAG plants, 1 μM paclobutrazol day 4 to day 10, mean±SEM, 35S:LFY plants 2.5±0.2) of the same compound?
**A.** The value was 0.3±0.1.

**Q.** And the “number of branches and cauline leaves (duration of the first inflorescence phase)” value [2, 3]?
**A.** The value was “fewer”.

**Q.** And the “number of rosette leaves (duration of the vegetative phase)” value [2, 3]?
**A.** Its value is “more”.
